Numbers after ± are expanded uncertainties.
How the values were obtained:
[1] = 101.33 kPa, Liquid, Pycnometric method
[2] = xn = mol fraction of the nth substance listed; settings: 101 kPa, Liquid, Capillary tube (Ostwald / Ubbelohde) method

c1ccccc1 [benzene]
mass density ([1]; 303.15 K): 868.1 ± 0.5 kg/m3 | mass density ([1]; 313.15 K): 857.4 ± 0.6 kg/m3 | mass density ([1]; 323.15 K): 846.6 ± 0.6 kg/m3

c1ccccc1 [benzene] + CCC(C)=O
viscosity ([2]; 303.15 K, x2 = 0): 0.564 ± 0.011 mPa·s | viscosity ([2]; 313.15 K, x2 = 0): 0.498 ± 0.011 mPa·s | viscosity ([2]; 323.15 K, x2 = 0): 0.442 ± 0.011 mPa·s

CCC(C)=O [butanone]
mass density ([1]; 303.15 K): 794.6 ± 0.8 kg/m3 | mass density ([1]; 313.15 K): 784 ± 0.8 kg/m3 | mass density ([1]; 323.15 K): 773.3 ± 0.8 kg/m3

CCC(C)=O [butanone] + c1ccccc1
viscosity ([2]; 303.15 K, x1 = 0.101): 0.534 ± 0.011 mPa·s | viscosity ([2]; 303.15 K, x1 = 0.1999): 0.508 ± 0.011 mPa·s | viscosity ([2]; 303.15 K, x1 = 0.2988): 0.478 ± 0.011 mPa·s | viscosity ([2]; 303.15 K, x1 = 0.3969): 0.452 ± 0.011 mPa·s | viscosity ([2]; 303.15 K, x1 = 0.4996): 0.432 ± 0.011 mPa·s | viscosity ([2]; 303.15 K, x1 = 0.5988): 0.417 ± 0.011 mPa·s | viscosity ([2]; 303.15 K, x1 = 0.6993): 0.401 ± 0.011 mPa·s | viscosity ([2]; 303.15 K, x1 = 0.7931): 0.389 ± 0.011 mPa·s | viscosity ([2]; 303.15 K, x1 = 0.8961): 0.376 ± 0.011 mPa·s | viscosity ([2]; 303.15 K, x1 = 1): 0.367 ± 0.011 mPa·s | viscosity ([2]; 313.15 K, x1 = 0.101): 0.473 ± 0.011 mPa·s | viscosity ([2]; 313.15 K, x1 = 0.1999): 0.448 ± 0.011 mPa·s | viscosity ([2]; 313.15 K, x1 = 0.2988): 0.427 ± 0.011 mPa·s | viscosity ([2]; 313.15 K, x1 = 0.3969): 0.409 ± 0.011 mPa·s | viscosity ([2]; 313.15 K, x1 = 0.4996): 0.393 ± 0.011 mPa·s | viscosity ([2]; 313.15 K, x1 = 0.5988): 0.378 ± 0.011 mPa·s | viscosity ([2]; 313.15 K, x1 = 0.6993): 0.367 ± 0.011 mPa·s | viscosity ([2]; 313.15 K, x1 = 0.7931): 0.355 ± 0.011 mPa·s | viscosity ([2]; 313.15 K, x1 = 0.8961): 0.345 ± 0.011 mPa·s | viscosity ([2]; 313.15 K, x1 = 1): 0.334 ± 0.011 mPa·s | viscosity ([2]; 323.15 K, x1 = 0.101): 0.422 ± 0.011 mPa·s | viscosity ([2]; 323.15 K, x1 = 0.1999): 0.403 ± 0.011 mPa·s | viscosity ([2]; 323.15 K, x1 = 0.2988): 0.384 ± 0.011 mPa·s | viscosity ([2]; 323.15 K, x1 = 0.3969): 0.369 ± 0.011 mPa·s | viscosity ([2]; 323.15 K, x1 = 0.4996): 0.354 ± 0.011 mPa·s | viscosity ([2]; 323.15 K, x1 = 0.5988): 0.343 ± 0.011 mPa·s | viscosity ([2]; 323.15 K, x1 = 0.6993): 0.333 ± 0.011 mPa·s | viscosity ([2]; 323.15 K, x1 = 0.7931): 0.324 ± 0.011 mPa·s | viscosity ([2]; 323.15 K, x1 = 0.8961): 0.316 ± 0.011 mPa·s | viscosity ([2]; 323.15 K, x1 = 1): 0.306 ± 0.011 mPa·s

Reference: the NIST ThermoML archive (doi:10.1021/je1011604)
